Experiment [1] relates to adrenergic α1 receptor. As to the kind of experiment: Binding assay α1 (non-selective), [3H]prazosin, rat cerebral cortex. To be noted: percent inhibition of control specific binding; compounds tested at 1×10^−6 M. In short, it runs like this: (§1)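 Scintillation counting detects receptor-bound radioligand. Compound tested at 1×10^−6 M.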
For experiment [2], the target named is dopaminergic D2 receptor (Homo sapiens, UniProt P14416). As to the kind of experiment: Binding assay D2S (h), [3H]methyl-spiperone, HEK-293 cells. More on the design: expressed in transfected cells; host or cells: HEK-293 cells. To be noted: read-out: D2 [%]. The gist of the method:
as §1

The target in experiment [3] is dopaminergic D3 receptor (Homo sapiens, UniProt P35462). Description: Binding assay D3 (h), [3H]methyl-spiperone, CHO cells. More on the design: expressed in transfected cells; host or cells: CHO cells. To be noted: read-out: D3 [%]. In short, it runs like this:
as §1

In experiment [4] the target is serotoninergic 5-HT6 receptor (Homo sapiens, UniProt P50406). Description: Binding assay 5-HT6 (h), [3H]LSD, CHO cells. To be noted: read-out: 5-HT6. Further details: expressed in transfected cells; host or cells: CHO cells. In short, it runs like this: as §1
Sequence of serotoninergic 5-HT6 receptor (P50406 whole entry): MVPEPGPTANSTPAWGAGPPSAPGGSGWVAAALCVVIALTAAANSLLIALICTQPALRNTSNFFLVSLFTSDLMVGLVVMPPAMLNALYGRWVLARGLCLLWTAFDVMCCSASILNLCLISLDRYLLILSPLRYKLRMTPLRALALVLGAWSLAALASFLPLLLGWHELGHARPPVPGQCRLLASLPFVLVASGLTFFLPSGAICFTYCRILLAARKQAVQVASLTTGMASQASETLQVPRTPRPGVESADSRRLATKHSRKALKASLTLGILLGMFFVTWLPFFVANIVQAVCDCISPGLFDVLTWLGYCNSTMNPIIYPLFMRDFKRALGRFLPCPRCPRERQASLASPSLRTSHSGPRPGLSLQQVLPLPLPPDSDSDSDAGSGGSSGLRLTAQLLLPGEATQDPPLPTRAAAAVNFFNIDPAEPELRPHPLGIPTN
In experiment [5] the target is T1, serotoninergic 5-HT1A receptor (Homo sapiens, UniProt P08908).
T1 sequence (P08908 1-422): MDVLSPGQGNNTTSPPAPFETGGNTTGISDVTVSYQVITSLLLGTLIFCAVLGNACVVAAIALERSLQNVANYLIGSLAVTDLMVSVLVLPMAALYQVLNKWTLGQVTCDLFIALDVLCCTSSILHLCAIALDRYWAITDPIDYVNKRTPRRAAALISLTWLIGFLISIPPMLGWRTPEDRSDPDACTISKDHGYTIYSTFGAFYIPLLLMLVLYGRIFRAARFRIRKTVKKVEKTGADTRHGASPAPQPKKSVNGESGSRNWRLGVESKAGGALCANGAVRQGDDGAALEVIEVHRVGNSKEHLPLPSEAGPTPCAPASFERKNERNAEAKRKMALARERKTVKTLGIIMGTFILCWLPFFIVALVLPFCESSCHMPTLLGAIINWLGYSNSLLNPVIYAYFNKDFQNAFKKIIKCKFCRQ
Description: Binding assay 5-HT1A (h), [3H]8-OH-DPAT, HEK-293 cells. More on the design: expressed in transfected cells; host or cells: HEK-293 cells. To be noted: read-out: 5-HT1A. The gist of the method:
as §1

Experiment [6] addresses serotoninergic 5-HT2A receptor (Homo sapiens, UniProt P28223). Description: Binding assay 5-HT2A (h), [3H]ketanserin, HEK-293 cells. More on the design: expressed in transfected cells; host or cells: HEK-293 cells. To be noted: read-out: 5-HT2A. In short, it runs like this: as §1
Experiment [7] concerns the target serotoninergic 5-HT7 receptor (Homo sapiens, UniProt P34969). Description: Binding assay 5-HT7 (h), [3H]LSD, CHO cells. Further details: expressed in transfected cells; host or cells: CHO cells. To be noted: read-out: 5-HT7. In short, it runs like this:
as §1

Experiment [8] addresses T2, serotonine transporter (SERT) receptor (Homo sapiens, UniProt P31645).
T2 construct: expressed in transfected cells; host or cells: CHO cells
As to the kind of experiment: Binding assay SERT (h), [3H]imipramine, CHO cells. To be noted: read-out: SERT [%]. In short, it runs like this: as §1

Molecules are shown by their SMILES.

Sequence of dopaminergic D2 receptor (P14416 1-414 isoform P14416-2): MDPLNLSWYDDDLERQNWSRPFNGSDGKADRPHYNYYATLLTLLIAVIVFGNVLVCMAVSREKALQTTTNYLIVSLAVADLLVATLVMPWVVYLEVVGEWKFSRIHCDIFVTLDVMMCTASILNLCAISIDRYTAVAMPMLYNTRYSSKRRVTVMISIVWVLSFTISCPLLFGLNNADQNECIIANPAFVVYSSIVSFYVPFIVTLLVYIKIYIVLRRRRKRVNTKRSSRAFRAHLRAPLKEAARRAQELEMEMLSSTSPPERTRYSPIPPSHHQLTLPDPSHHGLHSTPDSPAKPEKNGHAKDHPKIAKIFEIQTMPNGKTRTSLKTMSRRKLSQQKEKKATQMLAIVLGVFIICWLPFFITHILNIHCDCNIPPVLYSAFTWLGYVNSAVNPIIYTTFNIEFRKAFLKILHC
T2 sequence (P31645 whole entry): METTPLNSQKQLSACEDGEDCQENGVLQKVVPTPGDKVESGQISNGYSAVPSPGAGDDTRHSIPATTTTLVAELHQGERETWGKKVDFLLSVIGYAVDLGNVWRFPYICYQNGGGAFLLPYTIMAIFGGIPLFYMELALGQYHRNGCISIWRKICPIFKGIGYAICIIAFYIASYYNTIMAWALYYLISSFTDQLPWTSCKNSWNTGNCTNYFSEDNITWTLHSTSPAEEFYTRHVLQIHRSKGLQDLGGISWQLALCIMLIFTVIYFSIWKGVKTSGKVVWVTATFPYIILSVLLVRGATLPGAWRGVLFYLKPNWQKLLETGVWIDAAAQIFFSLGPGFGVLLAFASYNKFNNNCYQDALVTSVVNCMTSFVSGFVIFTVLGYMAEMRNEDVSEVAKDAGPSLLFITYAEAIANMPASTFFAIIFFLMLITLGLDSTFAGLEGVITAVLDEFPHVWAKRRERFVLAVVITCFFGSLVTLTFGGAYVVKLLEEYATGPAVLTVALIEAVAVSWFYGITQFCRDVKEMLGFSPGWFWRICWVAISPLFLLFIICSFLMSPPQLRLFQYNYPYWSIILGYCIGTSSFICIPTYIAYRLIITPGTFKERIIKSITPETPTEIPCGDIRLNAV
Sequence of dopaminergic D3 receptor (P35462 whole entry): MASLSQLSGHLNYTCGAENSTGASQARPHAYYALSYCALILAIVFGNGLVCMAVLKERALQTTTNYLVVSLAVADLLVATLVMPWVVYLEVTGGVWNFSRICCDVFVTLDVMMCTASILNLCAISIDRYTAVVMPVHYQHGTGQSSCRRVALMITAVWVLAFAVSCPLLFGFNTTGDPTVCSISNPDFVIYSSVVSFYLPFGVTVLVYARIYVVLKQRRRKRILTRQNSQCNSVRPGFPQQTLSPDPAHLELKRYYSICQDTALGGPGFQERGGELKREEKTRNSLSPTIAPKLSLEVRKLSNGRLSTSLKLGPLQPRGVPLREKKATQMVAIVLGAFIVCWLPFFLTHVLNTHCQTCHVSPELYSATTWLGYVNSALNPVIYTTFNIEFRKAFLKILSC
Sequence of serotoninergic 5-HT2A receptor (P28223 whole entry): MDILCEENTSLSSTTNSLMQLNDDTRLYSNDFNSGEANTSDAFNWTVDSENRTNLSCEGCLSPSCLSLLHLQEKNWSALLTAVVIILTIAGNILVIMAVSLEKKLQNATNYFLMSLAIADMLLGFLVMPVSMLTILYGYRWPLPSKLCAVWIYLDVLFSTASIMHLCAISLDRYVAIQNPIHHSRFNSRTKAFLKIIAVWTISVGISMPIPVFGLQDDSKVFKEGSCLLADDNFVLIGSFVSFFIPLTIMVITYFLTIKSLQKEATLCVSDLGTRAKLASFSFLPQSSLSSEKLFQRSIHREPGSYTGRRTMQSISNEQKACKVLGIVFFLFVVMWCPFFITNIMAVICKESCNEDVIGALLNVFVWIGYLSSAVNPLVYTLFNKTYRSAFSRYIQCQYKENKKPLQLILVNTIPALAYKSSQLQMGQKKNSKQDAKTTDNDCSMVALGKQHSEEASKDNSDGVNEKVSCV
Sequence of serotoninergic 5-HT7 receptor (P34969 whole entry): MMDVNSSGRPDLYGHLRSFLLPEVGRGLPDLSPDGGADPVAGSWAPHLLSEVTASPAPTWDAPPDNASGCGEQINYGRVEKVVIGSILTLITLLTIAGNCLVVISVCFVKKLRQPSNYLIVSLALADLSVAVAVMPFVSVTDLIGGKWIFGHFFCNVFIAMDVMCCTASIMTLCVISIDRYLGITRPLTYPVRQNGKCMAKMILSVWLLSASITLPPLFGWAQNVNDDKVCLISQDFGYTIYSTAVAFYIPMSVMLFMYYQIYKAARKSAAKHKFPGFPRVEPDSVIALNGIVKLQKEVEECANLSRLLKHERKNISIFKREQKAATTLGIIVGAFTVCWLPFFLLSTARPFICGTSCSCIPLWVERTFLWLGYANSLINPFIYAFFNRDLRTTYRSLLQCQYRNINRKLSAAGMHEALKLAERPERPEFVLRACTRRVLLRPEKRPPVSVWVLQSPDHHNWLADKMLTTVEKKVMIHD

Take `O=S(=O)(NCCCCN1CCC(c2noc3cc(F)ccc23)CC1)c1ccc(Cl)cc1` [Compound 296, 4-Chloro-N-[4-[4-(6-fluoro-1,2-benzoxazol-3-yl)piperidin-1-yl]butyl]benzenesulphonamide]: the “α1 [%]” value in experiment [1] was determined as 101%. Further, the inhibition at 1 µM in experiment [2] worked out at 105%; in experiment [3], 100%; in experiment [4] it was 83%; in experiment [5], 34%; in experiment [6], 93%; in experiment [7], 91%. Moreover, the inhibition at 1 µM in experiment [8] is 49%.

Take `O=S(=O)(NCCCN1CCN(c2nsc3ccccc23)CC1)c1ccc(OC(F)(F)F)cc1` [Compound 259, N-[3-[4-(1,2-Benzothiazol-3-yl)piperazin-1-yl]propyl]-4-(trifluoromethoxy)benzenesulphonamide]: the “α1 [%]” value in experiment [1] is on record as 88%. Also, the inhibition at 1 µM in experiment [2] was found to be 93%; in experiment [3] it was 85%; in experiment [4], 74%; in experiment [5], 97%; in experiment [6], 56%; in experiment [7], 96%. Also, the inhibition at 1 µM in experiment [8] was 16%.

As to `O=S(=O)(NCCCCN1CCN(c2cccc3[nH]ccc23)CC1)c1cccc(C(F)(F)F)c1` [Compound 361, N-[4-[4-(1H-Indol-4-yl)piperazin-1-yl]butyl]-3-(trifluoromethyl)benzenesulphonamide], the “α1 [%]” value in experiment [1] is 98%. The inhibition at 1 µM in experiment [2] was found to be 99%; in experiment [3] it was 98%; in experiment [4], 70%; in experiment [5], 95%; in experiment [6] it was 49%; in experiment [7], 86%. The inhibition at 1 µM in experiment [8] stood at 6%.

Take `Cc1[nH]c2ccc(Cl)cc2c1C1=CCN(CCCNS(=O)(=O)c2cccc3ccccc23)CC1` [Compound 441, N-[3-[4-(5-Chloro-2-methyl-1H-indol-3-yl)-3,6-dihydro-2H-pyridin-1-yl]propyl]-naphthalene-1-sulphonamide]: the “α1 [%]” value in experiment [1] is 16%. In addition, the inhibition at 1 µM in experiment [2] stood at 77%; in experiment [3] it was 72%; in experiment [4], 84%; in experiment [5] it was 54%; in experiment [6] it was 57%; in experiment [7], 82%. For the same compound, in experiment [8], the inhibition at 1 µM was 1%.

With `O=S(=O)(NCCCCN1CCN(c2noc3ccccc23)CC1)c1ccc(Br)cc1` [Compound 274, N-[4-[4-(1,2-Benzoxazol-3-yl)piperazin-1-yl]butyl]-4-bromobenzenesulphonamide], the “α1 [%]” value in experiment [1] is given as 99%. In addition, the inhibition at 1 µM in experiment [2] is 96%; in experiment [3], 91%; in experiment [4], 81%; in experiment [5], 73%; in experiment [6], 97%; in experiment [7], 83%. In addition, in experiment [8], the inhibition at 1 µM stood at 30%.

In the case of `O=S(=O)(NCCCCN1CCN(c2nsc3ccccc23)CC1)c1ccc(Cl)c(Cl)c1` [Compound 228, N-[4-[4-(1,2-Benzothiazol-3-yl)piperazin-1-yl]butyl]-3,4-dichlorobenzenesulphonamide], the “α1 [%]” value in experiment [1] is 92%. Further, the inhibition at 1 µM came out at 103% in experiment [2]; 92% in experiment [3]; 87% in experiment [4]; 81% in experiment [5]; 91% in experiment [6]; 98% in experiment [7]. Also, in experiment [8], the inhibition at 1 µM was determined as 16%.

For the compound `O=c1[nH]c2ccc(S(=O)(=O)NCCCCN3CCN(c4cccc5c4OCCO5)CC3)cc2o1` [Compound 403, N-[4-[4-(2,3-Dihydro-1,4-benzodioxin-5-yl)piperazin-1-yl]butyl]-2-oxo-3H-1,3-benzoxazole-6-sulphonamide], in experiment [1], the “α1 [%]” value was 98%. Besides, the inhibition at 1 µM in experiment [2] is 85%; in experiment [3], 99%; in experiment [4] it was -21%; in experiment [5], 98%; in experiment [6], 64%; in experiment [7] it was 95%. For the same compound, the inhibition at 1 µM in experiment [8] was -9%.

Take `Cc1[nH]c2ccc(Cl)cc2c1C1=CCN(CCCCNS(=O)(=O)c2cccc(Cl)c2)CC1` [Compound 137, N-[4-[4-(5-Chloro-2-methyl-1H-indol-3-yl)-3,6-dihydro-2H-pyridin-1-yl]butyl]-3-chlorobenzenesulphonamide]: the “α1 [%]” value in experiment [1] turned out to be 10%. Also, the inhibition at 1 µM came out at 65% in experiment [2]; 92% in experiment [3]; 91% in experiment [4]; 39% in experiment [5]; 47% in experiment [6]; 33% in experiment [7]. Further, in experiment [8], the inhibition at 1 µM was found to be 38%.

In the case of `Cc1cc(S(=O)(=O)NCCCN2CCC(c3noc4cc(F)ccc34)CC2)c(C)s1` [Compound 342, N-[3-[4-(6-Fluoro-1,2-benzoxazol-3-yl)piperidin-1-yl]propyl]-2,5-dimethyl-thiophene-3-sulphonamide], the “α1 [%]” value in experiment [1] is given as 103%. Also, the inhibition at 1 µM in experiment [2] amounted to 106%; in experiment [3], 99%; in experiment [4], 100%; in experiment [5], 74%; in experiment [6], 106%; in experiment [7], 96%. For the same compound, the inhibition at 1 µM in experiment [8] was found to be 26%.

For the compound `N#Cc1ccc(S(=O)(=O)NCCCCN2CCC(c3noc4cc(F)ccc34)CC2)cc1` [Compound 305, 4-Cyano-N-[4-[4-(6-fluoro-1,2-benzoxazol-3-yl)piperidin-1-yl]butyl]benzenesulphonamide], the “α1 [%]” value in experiment [1] is recorded as 99%. In addition, the inhibition at 1 µM was determined as 88% in experiment [2]; 103% in experiment [3]; 78% in experiment [4]; 58% in experiment [5]; 96% in experiment [6]; 85% in experiment [7]. In addition, in experiment [8], the inhibition at 1 µM was -18%.

`O=S(=O)(NCCCCN1CCN(c2noc3ccccc23)CC1)c1ccc2cn[nH]c2c1` [Compound 291, N-[4-[4-(1,2-Benzoxazol-3-yl)piperazin-1-yl]butyl]-1H-indazole-6-sulphonamide]: the “α1 [%]” value in experiment [1] is listed as 99%. Further, the inhibition at 1 µM in experiment [2] worked out at 99%; in experiment [3], 85%; in experiment [4] it was 83%; in experiment [5], 38%; in experiment [6], 83%; in experiment [7], 99%. For the same compound, the inhibition at 1 µM in experiment [8] amounted to 8%.

For `O=S(=O)(NCCCCN1CCN(c2nsc3ccccc23)CC1)c1ccc(OC(F)(F)F)cc1` [Compound 236, N-[4-[4-(1,2-Benzothiazol-3-yl)piperazin-1-yl]butyl]-4-(trifluoromethoxy)benzenesulphonamide], the “α1 [%]” value in experiment [1] worked out at 92%. The inhibition at 1 µM in experiment [2] stood at 99%; in experiment [3] it was 85%; in experiment [4] it was 67%; in experiment [5], 76%; in experiment [6] it was 89%; in experiment [7] it was 91%. For the same compound, the inhibition at 1 µM in experiment [8] was -15%.

For the origin of these results see US8822517B2, “Arylosulfonamides for the treatment of CNS diseases” (Adamed SP. Z O.O., priority 2010, dated 2014).
